Test results taken from ChEMBL document CHEMBL5465560, “Selectivity Literature for EUbOPEN Chemogenomic Library” (2024).

Tests used:
[1] = target: Histone-lysine N-methyltransferase, H3 lysine-79 specific (Homo sapiens, UniProt Q8TEK3); assay: Selectivity interaction (Methyltransferase screen (Scintillation proximity assays)) EUB0000255b DOT1L
[2] = target: Tyrosine-protein kinase CSK (Homo sapiens) (UniProt P41240); assay: Selectivity interaction (Upstate Kinase Profiler service (Millipore)) EUB0000056c CSK; conditions: at 1 µM
[3] = target: Vascular endothelial growth factor receptor 2 (Homo sapiens, UniProt P35968); assay: Selectivity interaction (ProQinase) EUB0000171b KDR
[4] = target: T1, Serine/threonine-protein kinase TAO2 (Homo sapiens) (UniProt Q9UL54); assay: Selectivity interaction (Kinase panel (KiNativ target engagement assay in Jurkat cells)) EUB0001635a TAOK2; assay type: cell-based; conditions: Selectivity number of off-targets 0.0, Selectivity number of targets 233.0, Source Knowledge https://www.sciencedirect.com/science/article/pii/S2451945619300674?via%3Dihub, at 1 µM
T1 sequence (whole entry): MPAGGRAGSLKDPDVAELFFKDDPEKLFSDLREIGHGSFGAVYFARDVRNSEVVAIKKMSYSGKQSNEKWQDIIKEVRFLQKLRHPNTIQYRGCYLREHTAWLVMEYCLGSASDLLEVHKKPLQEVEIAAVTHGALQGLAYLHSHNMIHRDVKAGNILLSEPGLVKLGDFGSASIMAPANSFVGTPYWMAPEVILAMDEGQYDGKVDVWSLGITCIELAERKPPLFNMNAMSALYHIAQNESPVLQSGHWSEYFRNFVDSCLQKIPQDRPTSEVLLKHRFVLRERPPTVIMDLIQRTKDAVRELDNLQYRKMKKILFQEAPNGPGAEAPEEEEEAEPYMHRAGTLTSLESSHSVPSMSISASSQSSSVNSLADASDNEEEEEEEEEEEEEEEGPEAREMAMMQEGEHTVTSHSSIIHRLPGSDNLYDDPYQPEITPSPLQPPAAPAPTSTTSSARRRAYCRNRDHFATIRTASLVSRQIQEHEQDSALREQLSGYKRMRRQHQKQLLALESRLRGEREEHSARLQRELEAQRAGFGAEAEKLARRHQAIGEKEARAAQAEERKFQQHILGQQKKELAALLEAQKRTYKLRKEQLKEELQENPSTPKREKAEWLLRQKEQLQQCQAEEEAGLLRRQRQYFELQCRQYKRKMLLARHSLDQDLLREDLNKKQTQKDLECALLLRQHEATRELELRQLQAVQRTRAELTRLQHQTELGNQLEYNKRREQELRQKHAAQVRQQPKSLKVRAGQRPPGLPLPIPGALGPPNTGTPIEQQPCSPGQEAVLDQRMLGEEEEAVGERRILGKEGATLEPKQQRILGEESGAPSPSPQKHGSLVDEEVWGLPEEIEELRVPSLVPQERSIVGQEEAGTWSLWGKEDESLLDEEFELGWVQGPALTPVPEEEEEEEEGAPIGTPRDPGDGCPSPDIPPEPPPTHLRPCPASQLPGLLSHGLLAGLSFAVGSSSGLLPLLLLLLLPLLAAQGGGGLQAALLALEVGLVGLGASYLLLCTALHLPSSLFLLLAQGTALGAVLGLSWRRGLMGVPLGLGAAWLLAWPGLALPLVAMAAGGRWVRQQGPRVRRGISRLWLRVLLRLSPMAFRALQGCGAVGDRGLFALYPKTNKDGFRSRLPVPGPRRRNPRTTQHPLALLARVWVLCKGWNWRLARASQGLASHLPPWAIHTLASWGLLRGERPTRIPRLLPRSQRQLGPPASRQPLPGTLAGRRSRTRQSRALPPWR

[5] = target: Tyrosine-protein kinase Yes (Homo sapiens) (UniProt P07947); assay: Selectivity interaction (Kinase panel (Invitrogen)) EUB0000639a YES1; conditions: at 200 nM
[6] = target: T2, Tyrosine-protein kinase ITK/TSK (Homo sapiens) (UniProt Q08881); assay: Selectivity interaction (KinomeScan (DiscoverX)) EUB0000695a ITK; conditions: at 100 nM
T2 sequence (whole entry): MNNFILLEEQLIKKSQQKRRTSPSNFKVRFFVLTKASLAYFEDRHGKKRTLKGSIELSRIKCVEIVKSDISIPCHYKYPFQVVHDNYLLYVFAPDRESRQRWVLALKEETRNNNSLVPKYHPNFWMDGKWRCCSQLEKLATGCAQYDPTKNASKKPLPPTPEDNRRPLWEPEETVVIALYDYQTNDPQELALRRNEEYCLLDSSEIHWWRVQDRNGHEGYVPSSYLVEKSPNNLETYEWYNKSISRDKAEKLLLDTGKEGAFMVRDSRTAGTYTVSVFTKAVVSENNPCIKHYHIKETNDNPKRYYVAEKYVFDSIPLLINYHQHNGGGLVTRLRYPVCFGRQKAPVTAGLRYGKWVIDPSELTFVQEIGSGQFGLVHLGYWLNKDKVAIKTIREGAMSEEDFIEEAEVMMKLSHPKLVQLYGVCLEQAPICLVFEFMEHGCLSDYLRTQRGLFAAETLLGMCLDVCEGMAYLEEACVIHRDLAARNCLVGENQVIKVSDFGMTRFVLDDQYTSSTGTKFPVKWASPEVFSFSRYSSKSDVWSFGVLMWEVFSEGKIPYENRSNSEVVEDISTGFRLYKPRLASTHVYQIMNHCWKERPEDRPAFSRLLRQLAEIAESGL

Sequence of Vascular endothelial growth factor receptor 2 (P35968 whole entry): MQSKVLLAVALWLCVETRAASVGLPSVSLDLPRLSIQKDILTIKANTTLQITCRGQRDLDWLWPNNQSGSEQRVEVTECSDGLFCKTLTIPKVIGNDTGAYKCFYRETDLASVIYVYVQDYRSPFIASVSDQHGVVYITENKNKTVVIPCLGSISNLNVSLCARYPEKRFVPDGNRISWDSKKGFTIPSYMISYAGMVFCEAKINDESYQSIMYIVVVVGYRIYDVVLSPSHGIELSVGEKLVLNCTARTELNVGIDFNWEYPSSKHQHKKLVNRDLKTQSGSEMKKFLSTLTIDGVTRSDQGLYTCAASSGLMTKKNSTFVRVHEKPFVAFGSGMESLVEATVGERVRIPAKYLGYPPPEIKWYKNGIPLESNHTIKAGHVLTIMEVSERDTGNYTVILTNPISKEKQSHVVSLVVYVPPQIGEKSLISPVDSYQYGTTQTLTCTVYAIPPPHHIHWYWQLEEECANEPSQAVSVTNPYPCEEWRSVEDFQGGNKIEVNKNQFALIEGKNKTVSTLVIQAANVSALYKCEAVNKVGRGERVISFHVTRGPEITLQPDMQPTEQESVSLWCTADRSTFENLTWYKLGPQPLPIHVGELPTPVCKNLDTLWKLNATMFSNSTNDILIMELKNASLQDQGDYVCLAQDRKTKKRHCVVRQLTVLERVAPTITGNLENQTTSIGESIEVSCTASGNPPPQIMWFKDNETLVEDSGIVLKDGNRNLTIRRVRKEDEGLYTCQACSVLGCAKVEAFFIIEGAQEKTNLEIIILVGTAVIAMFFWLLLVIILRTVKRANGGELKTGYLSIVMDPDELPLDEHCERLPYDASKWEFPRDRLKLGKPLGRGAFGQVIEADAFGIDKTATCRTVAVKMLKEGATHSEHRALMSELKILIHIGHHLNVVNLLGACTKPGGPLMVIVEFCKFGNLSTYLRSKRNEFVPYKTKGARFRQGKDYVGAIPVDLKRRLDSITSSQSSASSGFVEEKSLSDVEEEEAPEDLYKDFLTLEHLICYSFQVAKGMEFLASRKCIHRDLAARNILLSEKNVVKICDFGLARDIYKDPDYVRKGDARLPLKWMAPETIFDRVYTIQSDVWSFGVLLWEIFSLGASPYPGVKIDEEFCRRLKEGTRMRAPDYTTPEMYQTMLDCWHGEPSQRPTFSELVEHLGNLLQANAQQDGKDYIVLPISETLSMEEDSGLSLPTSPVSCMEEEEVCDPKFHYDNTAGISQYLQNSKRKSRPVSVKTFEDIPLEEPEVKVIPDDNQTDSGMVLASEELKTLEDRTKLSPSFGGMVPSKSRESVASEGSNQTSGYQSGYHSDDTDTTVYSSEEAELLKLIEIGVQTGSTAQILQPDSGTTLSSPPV
Sequence of Histone-lysine N-methyltransferase, H3 lysine-79 specific (Q8TEK3 whole entry, looked up): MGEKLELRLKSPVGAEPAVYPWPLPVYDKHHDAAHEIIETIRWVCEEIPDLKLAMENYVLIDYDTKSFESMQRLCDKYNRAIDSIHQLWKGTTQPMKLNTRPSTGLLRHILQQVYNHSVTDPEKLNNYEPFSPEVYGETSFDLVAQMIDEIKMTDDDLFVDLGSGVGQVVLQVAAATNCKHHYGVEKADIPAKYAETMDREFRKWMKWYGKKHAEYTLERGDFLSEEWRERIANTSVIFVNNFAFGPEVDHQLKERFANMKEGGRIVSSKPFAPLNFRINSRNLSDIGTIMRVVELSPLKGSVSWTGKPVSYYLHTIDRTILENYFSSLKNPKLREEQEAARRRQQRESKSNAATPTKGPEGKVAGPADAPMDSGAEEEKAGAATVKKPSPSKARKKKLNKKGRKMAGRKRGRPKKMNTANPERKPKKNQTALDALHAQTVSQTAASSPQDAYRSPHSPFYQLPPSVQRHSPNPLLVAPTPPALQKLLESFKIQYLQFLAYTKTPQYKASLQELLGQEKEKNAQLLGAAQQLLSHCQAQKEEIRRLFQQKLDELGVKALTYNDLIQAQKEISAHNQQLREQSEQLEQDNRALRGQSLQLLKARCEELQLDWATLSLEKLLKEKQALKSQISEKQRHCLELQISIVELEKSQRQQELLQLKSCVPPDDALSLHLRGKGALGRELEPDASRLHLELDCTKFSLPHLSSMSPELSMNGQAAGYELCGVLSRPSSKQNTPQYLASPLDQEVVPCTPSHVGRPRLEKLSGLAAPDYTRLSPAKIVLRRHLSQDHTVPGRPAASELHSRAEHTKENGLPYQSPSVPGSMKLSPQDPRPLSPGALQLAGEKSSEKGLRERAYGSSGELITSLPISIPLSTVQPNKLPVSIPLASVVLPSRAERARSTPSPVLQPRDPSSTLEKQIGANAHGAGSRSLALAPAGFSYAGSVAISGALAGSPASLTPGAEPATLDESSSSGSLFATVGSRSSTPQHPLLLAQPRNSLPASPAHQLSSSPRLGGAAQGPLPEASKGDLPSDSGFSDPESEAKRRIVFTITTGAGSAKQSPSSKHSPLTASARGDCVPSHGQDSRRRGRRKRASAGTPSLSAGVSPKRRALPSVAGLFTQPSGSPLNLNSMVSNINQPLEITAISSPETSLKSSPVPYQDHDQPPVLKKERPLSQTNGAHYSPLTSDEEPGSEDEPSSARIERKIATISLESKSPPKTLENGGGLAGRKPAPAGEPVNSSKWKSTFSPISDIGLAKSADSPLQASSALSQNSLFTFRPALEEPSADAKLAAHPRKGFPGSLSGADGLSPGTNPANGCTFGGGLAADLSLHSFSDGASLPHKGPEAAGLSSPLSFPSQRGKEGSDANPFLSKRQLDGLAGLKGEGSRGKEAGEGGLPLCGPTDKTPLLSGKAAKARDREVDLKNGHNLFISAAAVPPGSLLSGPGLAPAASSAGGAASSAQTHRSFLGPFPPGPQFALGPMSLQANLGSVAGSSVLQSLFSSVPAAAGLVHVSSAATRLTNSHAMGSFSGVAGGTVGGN
Sequence of Tyrosine-protein kinase CSK (Homo sapiens) (P41240 2-450 limits assumed): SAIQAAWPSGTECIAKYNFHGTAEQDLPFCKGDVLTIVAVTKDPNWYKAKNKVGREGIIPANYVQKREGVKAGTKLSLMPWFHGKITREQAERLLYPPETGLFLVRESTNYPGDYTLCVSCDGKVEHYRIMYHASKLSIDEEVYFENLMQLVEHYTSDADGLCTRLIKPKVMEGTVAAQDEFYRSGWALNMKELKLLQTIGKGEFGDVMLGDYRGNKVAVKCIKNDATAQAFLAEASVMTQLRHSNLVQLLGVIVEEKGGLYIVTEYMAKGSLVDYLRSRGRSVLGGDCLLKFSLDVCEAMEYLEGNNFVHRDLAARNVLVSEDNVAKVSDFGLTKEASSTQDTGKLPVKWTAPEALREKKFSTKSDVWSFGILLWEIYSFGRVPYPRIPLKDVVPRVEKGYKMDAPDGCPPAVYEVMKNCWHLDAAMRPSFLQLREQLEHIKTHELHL
Sequence of Tyrosine-protein kinase Yes (Homo sapiens) (P07947 2-543 limits assumed): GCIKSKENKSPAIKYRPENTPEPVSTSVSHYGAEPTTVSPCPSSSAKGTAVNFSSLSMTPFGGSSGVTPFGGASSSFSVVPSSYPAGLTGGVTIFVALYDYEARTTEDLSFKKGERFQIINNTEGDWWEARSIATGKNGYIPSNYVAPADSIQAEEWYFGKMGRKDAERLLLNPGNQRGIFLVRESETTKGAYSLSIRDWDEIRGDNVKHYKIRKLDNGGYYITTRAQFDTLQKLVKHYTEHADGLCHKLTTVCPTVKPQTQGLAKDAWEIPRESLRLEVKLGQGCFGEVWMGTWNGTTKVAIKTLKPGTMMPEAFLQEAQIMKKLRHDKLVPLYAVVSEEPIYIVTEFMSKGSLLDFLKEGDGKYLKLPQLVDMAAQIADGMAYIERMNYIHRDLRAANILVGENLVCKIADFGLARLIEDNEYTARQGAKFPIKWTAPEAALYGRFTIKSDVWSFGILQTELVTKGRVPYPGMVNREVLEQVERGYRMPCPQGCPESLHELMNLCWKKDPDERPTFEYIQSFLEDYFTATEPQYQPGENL

Q: What does the source list for `COCCN1CCC(c2cc(CN(C)C(=O)c3cccc(Oc4ccccc4)c3)ccn2)CC1`?
A: % activity ([1]; at 1 µM): > 95%; % activity ([1]; at 10 µM): > 90%

Q: For `Cc1ccc(-c2ccc3c(ccc4sc5c(c43)NC[C@@H](C)NC5=O)n2)cn1`, which % of inhibition [2] is on record?
A: 5%

Q: Which results are given for `C=CC(=O)Nc1cccc(C(=O)Nc2ccc(Nc3cc(-c4[nH]c(SC)nc4C)ccn3)cc2)c1`?
A: % of control ([3]; at 1 µM): 78%; % of control ([3]; at 5 µM): 50%

Q: How did the % of engagement [4] turn out when `C=CC(=O)Nc1ccc(C(=O)Nc2[nH]nc3c2CN(C(=O)N[C@H](CN(C)C)c2ccccc2)C3(C)C)cc1` was run?
A: -12.9%

Q: Which % of inhibition [5] does the source give for `CC[C@@H]1[C@H](F)C(=O)N[C@@H]1COc1nccc2cc(C(N)=O)c(OC)cc12` [ZIMLOVISERTIB] here?
A: 3.51%

Q: `Cc1cc(F)c(C(=O)Nc2cccc(-c3nncn3C(C)C)n2)cc1-n1cnc(C2CC2)c1` was tested. Which % of control [6] did it give?
A: 100%
